What was measured:
M. abscessus strain 103 = test: Mouse model of M. abscessus in the SCID mouse; assay type: in vivo; details: treatment end
M. avium = test: Minimum inhibitory concentration, microbroth dilution, presence and absence of CF sputum; assay type: cell-based; details: Mycobacterium avium, M. avium B18101968; + SP (10% CF sputum)
Experimental: Minimum inhibitory concentration (MIC) testing was performed by microbroth dilution method using Mueller Hinton (MH) broth (Cation Adjusted) to the calcium and magnesium ion concentration recommended in the CLSI standard M7-A7 (Becton Dickinson). MIC testing also was performed by microbroth dilution method using 7H9 broth (Sigma-Aldrich). […] M. abscessus was grown on 7H11 agar plates (Sigma-Aldrich) for 3 days at 35-37° C. in ambient air (depending on bacterial strain), and M. avium was grown on agar 7H11 plates (Sigma-Aldrich) for 21-30 days at 37° C. in ambient air.
The colony forming units (CFUs) are taken from the agar plates and placed in either MH or 7H9 broth with 0.05% tween-80 and grown at 35-37° C. in ambient air until the optical density (OD) absorbance taken after 3 days (M. abscessus) or 12 (M. avium) of growth is an (OD) 0.08-0.1 (0.5 McFarland Standard). The bacterial cell suspensions are then confirmed by preparing them in saline, matching the (OD) 0.08-0.1 (0.5 McFarland Standard). […]
Minimum inhibitory concentrations assays were performed as described above. […] The MIC of the Composition of Example 1 was measured following the same CLSI protocol as described above, in the presence and absence of cystic fibrosis patient sputum. […]

[1] = tested on: M. avium strain 2285 rough; test: Acute mouse model of M. avium infection in the Beige mouse; assay type: in vivo; details: treatment end, Oral 20 mg/kg every other day from day 7
M. avium 2285 rough = test: Chronic Beige mouse model; assay type: in vivo, Beige mice; details: Day 57, Oral 20 mg/kg, 14 treatments every other day from Day 28
[2] = Plasma toxicokinetics, 28-day inhalation study in dogs; details: Beagle, dog, in vivo, inhaled or intranasal
Experimental: The animals were studied for a period of 84 days.
All GLP canine study activities were performed by Lovelace Biomedical Research Institute (LBRI) under an IACUC approved protocol. Five groups of Beagle dogs were divided into study groups (Table 1) and exposed once daily by face-mask inhalation to filtered air (Group 1), vehicle (Group 2-0.5% polysorbate in saline), or CIS (Groups 3-5) for 28 consecutive days. The Low, Mid, and High doses (Groups 3, 4, and 5) were exposed to an average aerosol concentration of 0.209 mg/L for 30 min, 60 min and 120 min, respectively. The 28-day exposure period was followed by 28- and 56-day no exposure recovery periods (Recovery Study, Study Day (SD) 56 and 84 respectively). Blood was collected for toxicokinetic (TK) analysis from animals after both the first day of dose administration (Day 1; (0.5 hours (±5 minutes), 6 hours (±30 minutes), 12 hours (±30 minutes), 24 hours (±1 hour)), the last day of dose administration (SD28), and at […], SD56 and SD84, as indicated in Table 1. Main Study animals were necropsied one day post final exposure (SD29), while two male and two female Recovery Study animals were each necropsied on SD56 and SD84.
Aerosolized CIS was delivered to each dog by way of a 6-port aerosol exposure system using three Micro Mist compressed air jet nebulizers. (Supplementary Figure S1) All animals were conditioned to the face masks and restraint system before study. The exposure system and aerosol characteristics of the API and vehicle, including target aerosol concentration, concentration homogeneity, concentration repeatability, and aerosol size distribution were confirmed by LBRI prior to study. Dosing for each dog was measured for every dose delivered throughout study and calculated against individual dog weights.
Blood samples were immediately processed or held on wet ice for no more than 2 hours (hr) before being processed to plasma by centrifugation (1300 g, 2-8° C., ≥10 minutes), with plasma separated into appropriately labeled vials and stored frozen (−70 to −90° C.) until CFZ analysis.
Main study animals (3M/3F per timepoint) had blood samples collected at the following timepoints post-exposure on SD1 and SD28: 0.5 hr (±5 minutes), 6.0 hr (±30 minutes), 12 hr (±30 minutes), and 24 hr (±1 hr). Recovery animals (2M/2F per Recovery timepoint) from each group had blood collected on SD42, and prior to euthanasia on SD56 or SD84. The sample size for each group, sex, and timepoint is described in Table 1. Actual collection times were documented, and all animals in this study underwent scheduled sampling at their respective timepoints.
Retention time and peak area were determined by Analyst® Data Acquisition/Processing Software (Version 1.6.3). Analyte concentrations were obtained from a calibration curve constructed by plotting the peak area versus the nominal concentration using Analyst.
Clinical observations were descriptive while numerical evaluations (means and standard deviations) were used for all other parameters where possible. Toxicokinetic parameters were estimated for blood plasma using Phoenix WinNonlin version 8.3 software (Certara L.P.) with a non-compartmental analysis (NCA) consistent with aerosol administration (extravascular model) on each subject at each timepoint. NCA was only performed if there were quantifiable concentrations at two consecutive timepoints. Concentration values below the lower limit of quantitation of 2.00 ng/ml for plasma were labeled as below quantitative limits (BQL). These BQL values were treated as missing and excluded from calculation of descriptive statistics and toxicokinetic analysis.
Concentrations were used with full precision to three significant figures as received from bioanalytical data.

[3] = Lung and other tissue toxicokinetics, 28-day inhalation study in dogs; details: Beagle, in vivo, inhaled or intranasal, dog lung, SD29 to SD84, read-out: lung terminal elimination half-life (converted)
Source text: Clofazimine was extracted by protein precipitation from dog plasma.

clinical = details: human, plasma, inhaled
Experimental: (§2) For placebo, subjects were treated with a nebulized sterile, isotonic saline solution consisting of 0.9% wt/v sodium chloride. […] The doses were administered by inhalation with a Pari e-Flow nebulizer system to investigate tolerability and pharmacokinetics (PK) in healthy human subjects. The subjects were monitored for any life-threatening or severe adverse events and samples of their blood were taken for analysis.
(§3) Participants resided at the clinical research unit until day 5 post-dose, during which time they were evaluated for safety and samples were collected for PK assessment. Participants returned on days 8 and 15 for additional safety assessments and sample collection. […] Participants resided at the clinical research unit until day 8 post-dose, during which time they were evaluated for safety and samples were collected for PK assessment. Participants returned on days 15 and 36 for additional safety assessments and sample collection.

[4] = BCS class II drug; cited from earlier work
[5] = cited from earlier work
[6] = Pharmacokinetics of clofazimine delivered by nebulization in healthy subjects
Experimental: as §2, §3

[7] = Safety and tolerability of clofazimine delivered by nebulization in healthy subjects; details: inhaled, nebulized
Experimental: as §2, §3

A549 = test: Effects of surfactants on cell viability, MTT assay; assay type: cell-based, human; details: 1% in HBSS, positive control
Experimental: (§1) Effects of surfactants on cell viability study: The effects of a surfactant such as polysorbate 80 (PS 80) containing various fatty acids components were used in this study to determine their effect on cell viability in the lungs upon administration of composition for lung delivery. In vitro experiments were carried out using three different human cell lines, i.e., human cell lines A549 (type II pulmonary epithelial cell derived), hAELVi, (human alveolar epithelial cell) and Calu-3 (lung adenocarcinoma cell). The cell lines were obtained from ATCC (Bethesda, MD) and maintained as recommended by the provider and seeded and incubated for the 24 hour test in 96-well plates containing 4×10^4/well in RPMI 1640 medium (Gibco). For testing, the medium as aspirated, the cells were washed twice with Hank's balanced Salt Solution (HBSS) at pH 7.4 and a 0.2 ml sample solution containing a surfactant was added to the cells. HBSS was used as negative control as well as HBSS containing 1% TritonX-100 as positive control. Surfactants under study were two, a super-refined grade PS 80 comprising a mixture of various fatty acid esters of about 70% to 85% total content being oleic acid and having other components including, mystiric, palmitic, palmitoleic, stearic, linoleic and linolenic acid esters. This super-refined PS 80 (Tween® 80, A) manufactured by Mallinckrodt Baker or Merck, and a second PS 80 (B, NOF Corporation) comprising an oleic acid component of about 99% were tested. In the experiments to determine the in vitro IC50 values, the cell lines were exposed to equal concentrations of the two surfactants in HBSS solution at the same concentrations and several dilutions of the test compounds after incubation for 4 hours at 37° C. with shaking, washed with HBSS. Cell viability was assessed based on the absorbance measurements at 550 nm obtained using the MTT assay as described in Metz et al., J. ALTEX, Jan. 29, 2020: V.2 doi:10.14573/altex.1910231. FIGS. 8 and 9, and Table 16 illustrate data obtained from the experiments.

Calu-3 = test: as above; assay type: cell-based, human; details: 1% in HBSS, positive control
Experimental: as §1

hAELVi = test: as above; assay type: cell-based, human; details: 1% in HBSS, positive control
Experimental: as §1

With `NCC[C@H](O)C(=O)N[C@@H]1C[C@H](N)[C@@H](O[C@H]2O[C@H](CN)[C@@H](O)[C@H](O)[C@H]2O)[C@H](O)[C@H]1O[C@H]1O[C@H](CO)[C@@H](O)[C@H](N)[C@H]1O` [Amikacin, amikacin] the “Liver Log10 CFU ± SEM” value (M. abscessus strain 103; SQ 150 mg/kg every other day) was 3.07 ± 0.10 Log10 CFU, the “Lung Log10 CFU ± SEM” value (M. abscessus strain 103; SQ 150 mg/kg every other day) was 3.94 ± 0.11 Log10 CFU and the “Spleen Log10 CFU ± SEM” value (M. abscessus strain 103; SQ 150 mg/kg every other day) was 4.37 ± 0.31 Log10 CFU.
In the case of `CC(C)/N=c1\cc2n(-c3ccc(Cl)cc3)c3ccccc3nc-2cc1Nc1ccc(Cl)cc1` [Clofazimine, N,5-bis(4-chlorophenyl)-3-propan-2-yliminophenazin-2-amine], the MIC (M. avium) is reported as greater than 2 µg/mL, the “Liver Log10 CFU ± SEM” value (M. abscessus strain 103; Oral 20 mg/kg every other day) is reported as 4.78 ± 0.18 Log10 CFU and the “Lung Log10 CFU ± SEM” value (M. abscessus strain 103; Oral 20 mg/kg every other day) is reported as 3.33 ± 0.17 Log10 CFU. The “Spleen Log10 CFU ± SEM” value (M. abscessus strain 103; Oral 20 mg/kg every other day) was 3.79 ± 0.10 Log10 CFU, the “Liver Log10 CFU ± SEM” value [1] was 3.01 ± 0.03 Log10 CFU and the “Lung Log10 CFU ± SEM” value [1] was 3.95 ± 0.03 Log10 CFU. The “Spleen Log10 CFU ± SEM” value [1] was 3.14 ± 0.03 Log10 CFU, the “Liver Log10 CFU ± SEM” value (M. avium 2285 rough) was 4.07 ± 0.04 Log10 CFU and the “Lung Log10 CFU ± SEM” value (M. avium 2285 rough) was 5.94 ± 0.12 Log10 CFU. For the same compound, the “Spleen Log10 CFU ± SEM” value (M. avium 2285 rough) was 3.08 ± 0.04 Log10 CFU, the half-life ([2]; female, 0.74 mg/kg) was 8.99 h and the half-life ([2]; female, 1.48 mg/kg) was 9.43 h. The half-life ([2]; female, 2.52 mg/kg) was 7.23 h, the half-life ([2]; male, 0.68 mg/kg) was 7.19 h and the half-life ([2]; male, 1.36 mg/kg) was 8.95 h. The half-life ([2]; male, 2.72 mg/kg) was 7.89 h, the half-life ([3]; female, 2.95 mg/kg, Low dose females) was 262 h and the half-life ([3]; male, 5.45 mg/kg, Mid dose males) was 239 h. For the same compound, the half-life ([3]; male, 10.87 mg/kg, High dose males) was 475 h, the half-life (clinical) was 290 h and the solubility in water [4] was “practically insoluble in water”. The “absorption in humans after oral administration” value [5] was 45-62%, the “time to peak plasma concentrations” value ([6]; repeated administration, inhaled 30 or 90 mg daily for seven days) was 2 to 12 h and the “time to peak plasma concentrations” value ([6]; single administration, inhaled 30, 60, 90 mg) was 4 to 8 h. For the same compound, the “increase in AUC0-24” value ([6]; single administration, dose increase of 1.5-fold) was 1.6 fold, the “increase in AUC0-24” value ([6]; single administration, dose increase of 2-fold) was 2.3 fold and the “Columbia Suicide Severity Rating Scale (C-SSRS)” value [7] was “no suicidal ideation or behavior”. The ECG results [7] was “no abnormal, clinically significant electrocardiogram” and the skin discoloration [7] was “no evidence of skin discoloration”.
For Triton X-100, the cell viability (A549) was “loss all viability”, the cell viability (Calu-3) was “loss all viability” and the cell viability (hAELVi) was “loss all viability”.
